Measured values from patent US9670227B2, “Thienopyrimidine derivatives, a process for their preparation and pharmaceutical compositions containing them” (LES LABORATOIRES SERVIER, priority 2013, dated 2017).
Where two headings read alike, the source gives them in different places.

Assays:
[1] = system: H929 multiple myeloma tumour line; test: In vitro cytotoxicity, Microculture Tetrazolium Assay; format: cell-based; settings: H929 cells, 48 hours exposure, MTT, read-out: IC50 (μM) MTT H929
Description: The cytotoxicity studies were carried out on the H929 multiple myeloma tumour line.
The cells are distributed onto microplates and exposed to the test compounds for 48 hours.

Mcl-1 protein = Mcl-1 protein (UniProtKB primary accession number: Q07820) (Homo sapiens, UniProt Q07820); test: Inhibition of Mcl-1 by fluorescence polarisation, Method 1; format: binding; settings: fluorescence polarisation test; Method 2 values are underlined in the patent (underlining not visible here); read-out: IC50 (M) Mcl-1 FP
Chain of Mcl-1 protein (Q07820 whole entry): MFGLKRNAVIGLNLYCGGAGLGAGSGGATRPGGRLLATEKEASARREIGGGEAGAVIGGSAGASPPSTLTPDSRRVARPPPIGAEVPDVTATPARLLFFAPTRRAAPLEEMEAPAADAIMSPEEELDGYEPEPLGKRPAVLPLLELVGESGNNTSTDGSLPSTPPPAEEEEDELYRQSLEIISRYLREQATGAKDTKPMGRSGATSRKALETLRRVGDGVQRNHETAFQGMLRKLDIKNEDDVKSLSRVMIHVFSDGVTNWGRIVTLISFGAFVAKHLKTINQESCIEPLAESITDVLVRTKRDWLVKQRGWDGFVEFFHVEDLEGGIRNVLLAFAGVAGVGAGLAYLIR
Summary of the method: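 Binding was measured as fluorescence polarisation of a fluorescein-labelled ligand (1 nM) displaced from Mcl-1 (5 nM), both final. Compounds ran as 11-point series with final DMSO at 5%.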

Cc1c(-c2c(-c3ccc(F)cc3)sc3ncnc(OC(Cc4ccccc4OCc4ccnc(OCC(F)(F)F)n4)C(=O)O)c23)ccc(OCCN(C)C)c1Cl [Example 131, (2R)-2-{[(5Sa)-5-{3-chloro-4-[2-(dimethylamino)ethoxy]-2-methylphenyl}-6-(4-fluorophenyl)thieno[2,3-d]pyrimidin-4-yl]oxy}-3-(2-{[2-(2,2,2-trifluoroethoxy)pyrimidin-4-yl]methoxy}phenyl)propanoic acid]
IC50 ([1]; Homo sapiens, NCI-H929, 48 h): 0.039 µM
IC50 (Mcl-1 protein): 7.9e-09 M

Cc1c(-c2c(-c3ccc(F)cc3)sc3ncnc(OC(Cc4ccccc4OCc4ccnn4CC(F)(F)F)C(=O)O)c23)ccc(OCCN(C)C)c1Cl [Example 132, (2R)-2-{[(5Sa)-5-{3-chloro-4-[2-(dimethylamino)ethoxy]-2-methylphenyl}-6-(4-fluorophenyl)thieno[2,3-d]pyrimidin-4-yl]oxy}-3-(2-{[1-(2,2,2-trifluoroethyl)-1H-pyrazol-5-yl]methoxy}phenyl)propanoic acid]
IC50 ([1]; Homo sapiens, NCI-H929, 48 h): 0.102 µM
IC50 (Mcl-1 protein): 4.8e-09 M

CCCCn1nccc1COc1ccccc1CC(Oc1ncnc2sc(-c3ccc(F)cc3)c(-c3ccc(OCCN(C)C)c(Cl)c3C)c12)C(=O)O [Example 133, (2R)-3-{2-[(1-butyl-1H-pyrazol-5-yl)methoxy]phenyl}-2-{[(5Sa)-5-{3-chloro-4-[2-(dimethylamino)ethoxy]-2-methylphenyl}-6-(4-fluorophenyl)thieno[2,3-d]pyrimidin-4-yl]oxy}propanoic acid]
IC50 ([1]; Homo sapiens, NCI-H929, 48 h): 0.099 µM
IC50 (Mcl-1 protein): 3.4e-09 M

Cc1c(-c2c(-c3ccc(F)cc3)sc3ncnc(OC(Cc4ccccc4OCc4cnccn4)C(=O)O)c23)ccc(OCCN(C)C)c1Cl [Example 134, (2R)-2-{[(5Sa)-5-{3-chloro-4-[2-(dimethylamino)ethoxy]-2-methylphenyl}-6-(4-fluorophenyl)thieno[2,3-d]pyrimidin-4-yl]oxy}-3-[2-(pyrazin-2-ylmethoxy)phenyl]propanoic acid]
IC50 ([1]; Homo sapiens, NCI-H929, 48 h): 0.193 µM
IC50 (Mcl-1 protein): 1.3e-08 M

Cc1cc(-c2nccc(COc3ccccc3CC(Oc3ncnc4sc(-c5ccc(F)cc5)c(-c5ccc(OCCN(C)C)c(Cl)c5C)c34)C(=O)O)n2)ccn1 [Example 136, (2R)-2-{[(5Sa)-5-{3-chloro-4-[2-(dimethylamino)ethoxy]-2-methylphenyl}-6-(4-fluorophenyl)thieno[2,3-d]pyrimidin-4-yl]oxy}-3-(2-{[2-(2-methylpyridin-4-yl)pyrimidin-4-yl]methoxy}phenyl)propanoic acid]
IC50 ([1]; Homo sapiens, NCI-H929, 48 h): 0.015 µM
IC50 (Mcl-1 protein): 7.7e-09 M

Cc1cnccc1-c1nccc(COc2ccccc2CC(Oc2ncnc3sc(-c4ccc(F)cc4)c(-c4ccc(OCCN(C)C)c(Cl)c4C)c23)C(=O)O)n1 [Example 137, (2R)-2-{[(5Sa)-5-{3-chloro-4-[2-(dimethylamino)ethoxy]-2-methylphenyl}-6-(4-fluorophenyl)thieno[2,3-d]pyrimidin-4-yl]oxy}-3-(2-{[2-(3-methylpyridin-4-yl)pyrimidin-4-yl]methoxy}phenyl)propanoic acid]
IC50 ([1]; Homo sapiens, NCI-H929, 48 h): 0.007 µM
IC50 (Mcl-1 protein): 5.5e-09 M

Cc1c(-c2c(-c3ccc(F)cc3)sc3ncnc(OC(Cc4ccccc4OCc4cnccn4)C(=O)O)c23)ccc(OCC2CCN(C)C2)c1Cl [Example 139, (2R)-2-{[(5Sa)-5-(3-chloro-2-methyl-4-{[(3R)-1-methylpyrrolidin-3-yl]methoxy}phenyl)-6-(4-fluorophenyl)thieno[2,3-d]pyrimidin-4-yl]oxy}-3-[2-(pyrazin-2-ylmethoxy)phenyl]propanoic acid]
IC50 [1]: 0.636 µM
IC50 (Mcl-1 protein): 8.5e-08 M

Cc1c(-c2c(-c3ccc(F)cc3)sc3ncnc(OC(Cc4ccccc4OCc4cnccn4)C(=O)O)c23)ccc(OCC2CCN(C)C2)c1Cl [Example 140, (2R)-2-{[(5Sa)-5-(3-chloro-2-methyl-4-{[(3S)-1-methylpyrrolidin-3-yl]methoxy}phenyl)-6-(4-fluorophenyl)thieno[2,3-d]pyrimidin-4-yl]oxy}-3-[2-(pyrazin-2-ylmethoxy)phenyl]propanoic acid]
IC50 [1]: 0.205 µM
IC50 (Mcl-1 protein): 2.2e-08 M

Cc1c(-c2c(-c3ccc(F)cc3)sc3ncnc(OC(Cc4ccccc4OCc4cnccn4)C(=O)O)c23)ccc(OCC2CCCN2C)c1Cl [Example 143, (2R)-2-{[(5Sa)-5-{3-chloro-2-methyl-4-[(1-methylpyrrolidin-2-yl)methoxy]phenyl}-6-(4-fluorophenyl)thieno[2,3-d]pyrimidin-4-yl]oxy}-3-[2-(pyrazin-2-ylmethoxy)phenyl]propanoic acid]
IC50 ([1]; Homo sapiens, NCI-H929, 48 h): 1.61 µM
IC50 (Mcl-1 protein): 2.6e-08 M

Cc1c(-c2c(-c3ccc(F)cc3)sc3ncnc(O[C@H](Cc4ccccc4OCc4cnccn4)C(=O)O)c23)ccc(OCC2CCCCN(C)C2)c1Cl (stereo partly drawn) [Example 144, (2R)-2-{[(5Sa)-5-{3-chloro-2-methyl-4-[(1-methylazepan-3-yl)methoxy]phenyl}-6-(4-fluorophenyl)thieno[2,3-d]pyrimidin-4-yl]oxy}-3-[2-(pyrazin-2-ylmethoxy)phenyl]propanoic acid]
IC50 [1]: 1.6 µM
IC50 (Mcl-1 protein): 1.6e-08 M

Cc1c(-c2c(-c3ccc(F)cc3)sc3ncnc(OC(Cc4ccccc4OCc4cnccn4)C(=O)O)c23)ccc(OCC2CCN(C)C2)c1Cl [Example 145, (2R)-2-{[(5Sa)-5-{3-chloro-2-methyl-4-[(1-methylpyrrolidin-3-yl)methoxy]phenyl}-6-(4-fluorophenyl)thieno[2,3-d]pyrimidin-4-yl]oxy}-3-[2-(pyrazin-2-ylmethoxy)phenyl]propanoic acid]
IC50 [1]: 0.293 µM
IC50 (Mcl-1 protein): 1.1e-08 M

Cc1c(-c2c(-c3ccc(F)cc3)sc3ncnc(OC(Cc4ccccc4OCc4cnccn4)C(=O)O)c23)ccc(OCCCC2CCCN2C)c1Cl [Example 146, (2R)-2-{[(5Sa)-5-{3-chloro-2-methyl-4-[3-(1-methylpyrrolidin-2-yl)propoxy]phenyl}-6-(4-fluorophenyl)thieno[2,3-d]pyrimidin-4-yl]oxy}-3-[2-(pyrazin-2-ylmethoxy)phenyl]propanoic acid]
IC50 ([1]; Homo sapiens, NCI-H929, 48 h): 1.16 µM
IC50 (Mcl-1 protein): 3.5e-08 M

Cc1c(-c2c(-c3ccc(F)cc3)sc3ncnc(OC(Cc4ccccc4OCc4cnccn4)C(=O)O)c23)ccc(OCCCN(C)C)c1Cl [Example 147, (2R)-2-{[(5Sa)-5-{3-chloro-4-[3-(dimethylamino)propoxy]-2-methylphenyl}-6-(4-fluorophenyl)thieno[2,3-d]pyrimidin-4-yl]oxy}-3-[2-(pyrazin-2-ylmethoxy)phenyl]propanoic acid]
IC50 ([1]; Homo sapiens, NCI-H929, 48 h): 0.787 µM
IC50 (Mcl-1 protein): 2.4e-08 M

CNC(=O)COc1ccccc1CC(Oc1ncnc2sc(-c3ccc(F)o3)c(-c3ccc(OCCN4CCN(C)CC4)c(Cl)c3C)c12)C(=O)O [Example 151, (2R)-2-{[(5Sa)-5-{3-chloro-2-methyl-4-[2-(4-methylpiperazin-1-yl)ethoxy]phenyl}-6-(5-fluorofuran-2-yl)thieno[2,3-d]pyrimidin-4-yl]oxy}-3-{2-[2-(methylamino)-2-oxoethoxy]phenyl}propanoic acid]
IC50 ([1]; Homo sapiens, NCI-H929, 48 h): 0.309 µM
IC50 (Mcl-1 protein): 3.6e-09 M

Cc1c(-c2c(-c3ccc(F)o3)sc3ncnc(OC(Cc4ccccc4OCC(=O)NC4CCCC4)C(=O)O)c23)ccc(OCCN2CCN(C)CC2)c1Cl [Example 152, (2R)-2-{[(5Sa)-5-{3-chloro-2-methyl-4-[2-(4-methylpiperazin-1-yl)ethoxy]phenyl}-6-(5-fluorofuran-2-yl)thieno[2,3-d]pyrimidin-4-yl]oxy}-3-{2-[2-(cyclopentylamino)-2-oxoethoxy]phenyl}propanoic acid]
IC50 ([1]; Homo sapiens, NCI-H929, 48 h): 0.19 µM
IC50 (Mcl-1 protein): 9.9e-09 M
